{"source": "patent US20090264433A1", "about": "“Compounds, Compositions and Methods Comprising Triazine Derivatives” (Institute for OneWorld Health, priority 2008, published 2009)", "note": "Values joined by “and” are separate entries in the source; they are usually repeats but may differ in a detail not shown here. Identical values can stand only once."}
{"tested_on": "mice (CD1 strain), CTX-injected small intestinal loops", "conditions": "mouse, in vivo"}
{"smiles": "Oc1c(Br)cc(-c2cnc(OCc3ccc(Cl)cc3)nn2)cc1Br", "note": "[Compound 20, 2,6-dibromo-4-(3-(4-chlorobenzyloxy)-1,2,4-triazin-6-yl)phenol]", "closed loop % inhibition": "87.6%"}
{"smiles": "Oc1c(Br)cc(-c2cnc(COc3cccc(Cl)c3Cl)nn2)cc1Br", "note": "[Compound 30, 2,6-dibromo-4-(3-((2,3-dichlorophenoxy)methyl)-1,2,4-triazin-6-yl)phenol]", "closed loop % inhibition": "94.4%"}
{"smiles": "Oc1c(Cl)cc(-c2cnc(C(O)(c3ccccc3)c3ccccc3)nn2)cc1Cl", "note": "[Compound 36, 2,6-dichloro-4-(3-(hydroxydiphenylmethyl)-1,2,4-triazin-6-yl)phenol]", "closed loop % inhibition": "74.9% and 62.1%"}
{"smiles": "Oc1c(Br)cc(-c2cnc(OCCc3ccccc3)nn2)cc1Br", "note": "[Compound 96, 2,6-dibromo-4-(3-phenethoxy-1,2,4-triazin-6-yl)phenol]", "closed loop % inhibition": "78.6%"}
{"smiles": "Oc1c(Cl)cc(-c2cnc(OCc3ccccc3F)nn2)cc1Cl", "note": "[Compound 127, 2,6-dichloro-4-(3-(2-fluorobenzyloxy)-1,2,4-triazin-6-yl)phenol]", "closed loop % inhibition": "70.2% and 62.7%"}
